Test system: hepatocytes
Assay: Seq-Well scRNA-Seq of hepatocytes after APAP overdose (signature scores, DEG vs untreated)
Assay type: in vivo, mouse
[1] = cluster A96 (APAP, 96 h) vs other clusters, Wilcox
[2] = cluster A96, DEG between treatment (APAP and PH)

SMILES: CC(=O)Nc1ccc(O)cc1 [APAP, acetaminophen]
- avg_logFC Snx3 (cluster A48 (APAP, 48 h)): 0.2562
- avg_logFC Sord (cluster A48 (APAP, 48 h)): 0.3763
- avg_logFC St3gal5 (cluster A48 (APAP, 48 h)): 0.3766
- avg_logFC Stbd1 (cluster A48 (APAP, 48 h)): 0.2667
- avg_logFC Sult1a1 (cluster A48 (APAP, 48 h)): 0.3856
- avg_logFC Sult1d1 (cluster A48 (APAP, 48 h)): 0.5282
- avg_logFC Syvn1 (cluster A48 (APAP, 48 h)): 0.2867
- avg_logFC Tcea3 (cluster A48 (APAP, 48 h)): 0.3934
- avg_logFC Tef (cluster A48 (APAP, 48 h)): 0.3162
- avg_logFC Tmbim4 (cluster A48 (APAP, 48 h)): 0.3931
- avg_logFC Tmbim6 (cluster A48 (APAP, 48 h)): 0.3567
- avg_logFC Tmem219 (cluster A48 (APAP, 48 h)): 0.2647
- avg_logFC Ttc36 (cluster A48 (APAP, 48 h)): 0.6145
- avg_logFC Ttpa (cluster A48 (APAP, 48 h)): 0.4757
- avg_logFC Ttr (cluster A48 (APAP, 48 h)): 0.4205
- avg_logFC Ugt2b5 (cluster A48 (APAP, 48 h)): 0.6108
- avg_logFC Ugt2b36 (cluster A48 (APAP, 48 h)): 0.3503
- avg_logFC Upb1 (cluster A48 (APAP, 48 h)): 0.3631
- avg_logFC Usmg5 (cluster A48 (APAP, 48 h)): 0.4173
- avg_logFC Vnn3 (cluster A48 (APAP, 48 h)): 0.3054
- avg_logFC Vtn (cluster A48 (APAP, 48 h)): 0.3638
- avg_logFC Yipf3 (cluster A48 (APAP, 48 h)): 0.2702
- avg_logFC Zfp91 (cluster A48 (APAP, 48 h)): 0.3221
- pct.1, gene Abcc3 (cluster A96): 0.733
- pct.1, gene Acaa1b (cluster A96): 0.986
- pct.1, gene Acat1 (cluster A96): 0.917
- pct.1, gene Acot1 (cluster A96): 0.459
- pct.1, gene Agpat6 (cluster A96): 0.743
- pct.1, gene Agt (cluster A96): 0.912
- pct.1, gene Akr1d1 (cluster A96): 0.721
- pct.1, gene Aldh9a1 (cluster A96): 0.884
- pct.1, gene Aplp2 (cluster A96): 0.826
- pct.1, gene Apo17a (cluster A96): 0.559
- pct.1, gene Apoc2 (cluster A96): 0.901
- pct.1, gene Aqp9 (cluster A96): 0.801
- pct.1, gene Arl4a (cluster A96): 0.517
- pct.1, gene Asl (cluster A96): 0.896
- pct.1, gene Baat (cluster A96): 0.862
- pct.1, gene Bnip3 (cluster A96): 0.716
- pct.1, gene Cd36 (cluster A96): 0.299
- pct.1, gene Ces1e (cluster A96): 0.71
- pct.1, gene Cox5a (cluster A96): 0.813
- pct.1, gene Cox6a1 (cluster A96): 0.943
- pct.1, gene Cox8a (cluster A96): 0.737
- pct.1, gene Cpeb4 (cluster A96): 0.527
- pct.1, gene Cpox (cluster A96): 0.634
- pct.1, gene Cpt1a (cluster A96): 0.837
- pct.1, gene Creg1 (cluster A96): 0.985
- pct.1, gene Csad (cluster A96): 0.843
- pct.1, gene Ctage5 (cluster A96): 0.837
- pct.1, gene Cth (cluster A96): 0.944
- pct.1, gene Cxcl12 (cluster A96): 0.635
- pct.1, gene D4Wsu53e (cluster A96): 0.597
- pct.1, gene Decr2 (cluster A96): 0.813
- pct.1, gene Dhdh (cluster A96): 0.734
- pct.1, gene Etfdh (cluster A96): 0.811
- pct.1, gene Etnppl (cluster A96): 0.677
- pct.1, gene F5 (cluster A96): 0.858
- pct.1, gene Fmo1 (cluster A96): 0.606
- pct.1, gene G0s2 (cluster A96): 0.525
- pct.1, gene G6pc (cluster A96): 0.86
- pct.1, gene Gabarapl1 (cluster A96): 0.881
- pct.1, gene Gadd45b (cluster A96): 0.452
- pct.1, gene Gas5 (cluster A96): 0.68
- pct.1, gene Gm4952 (cluster A96): 0.663
- pct.1, gene Gsta2 (cluster A96): 0.522
- pct.1, gene Gstt3 (cluster A96): 0.541
- pct.1, gene Gyk (cluster A96): 0.616
- pct.1, gene Hmgcl (cluster A96): 0.871
- pct.1, gene Hmgcs1 (cluster A96): 0.858
- pct.1, gene Hpgd (cluster A96): 0.588
- pct.1, gene Hsd17b7 (cluster A96): 0.56
- pct.1, gene Hsd17b10 (cluster A96): 0.841
- pct.1, gene Igfbp1 (cluster A96): 0.826
- pct.1, gene Kif1b (cluster A96): 0.686
- pct.1, gene Lcat (cluster A96): 0.886
- pct.1, gene Mia3 (cluster A96): 0.81
- pct.1, gene Ndufa3 (cluster A96): 0.737
- pct.1, gene Ndufa7 (cluster A96): 0.818
- pct.1, gene Nr1i3 (cluster A96): 0.625
- pct.1, gene Oat (cluster A96): 0.653
- pct.1, gene Pon1 (cluster A96): 0.965
- pct.1, gene Por (cluster A96): 0.858
- pct.1, gene Ppp1r3b (cluster A96): 0.536
- pct.1, gene Ppp2r5a (cluster A96): 0.764
- pct.1, gene Ptms (cluster A96): 0.806
- pct.1, gene Pxmp4 (cluster A96): 0.687
- pct.1, gene Rdh16 (cluster A96): 0.494
- pct.1, gene Rdx (cluster A96): 0.824
- pct.1, gene Rgn (cluster A96): 0.899
- pct.1, gene Sc4mol (cluster A96): 0.781
- pct.1, gene Slc4a4 (cluster A96): 0.609
- pct.1, gene Slc25a20 (cluster A96): 0.671
- pct.1, gene Slco1a4 (cluster A96): 0.507
- pct.1, gene Snord118 (cluster A96): 0.564
- pct.1, gene Tgoln1 (cluster A96): 0.756
- pct.1, gene Tmed5 (cluster A96): 0.714
- pct.1, gene Tobi (cluster A96): 0.649
- pct.1, gene Tsc22d3 (cluster A96): 0.534
- pct.1, gene Zfp36l1 (cluster A96): 0.601
- pct.1, gene Zfp91 (cluster A96): 0.693
- Acaa1b avg_logFC [1]: 0.282
- Acat1 avg_logFC [1]: 0.2558
- Acot1 avg_logFC [1]: 0.3106
- Agpat6 avg_logFC [1]: 0.3143
- Agt avg_logFC [1]: 0.255
- Akr1d1 avg_logFC [1]: 0.2994
- Aldh9a1 avg_logFC [1]: 0.2585
- Apo17a avg_logFC [1]: 0.2518
- Apoc2 avg_logFC [1]: 0.2781
- Aqp9 avg_logFC [1]: 0.3178
- Arl4a avg_logFC [1]: 0.2706
- Asl avg_logFC [1]: 0.275
- Baat avg_logFC [1]: 0.2728
- Bnip3 avg_logFC [1]: 0.3208
- Cd36 avg_logFC [1]: 0.3129
- Ces1e avg_logFC [1]: 0.2566
- Cox5a avg_logFC [1]: 0.2728
- Cox6a1 avg_logFC [1]: 0.2746
- Cox8a avg_logFC [1]: 0.2519
- Cpeb4 avg_logFC [1]: 0.3011
- Cpox avg_logFC [1]: 0.3229
- Cpt1a avg_logFC [1]: 0.2626
- Creg1 avg_logFC [1]: 0.2517
- Csad avg_logFC [1]: 0.4207
- Ctage5 avg_logFC [1]: 0.2535
- Cth avg_logFC [1]: 0.2966
- Cxcl12 avg_logFC [1]: 0.2822
- D4Wsu53e avg_logFC [1]: 0.2928
- Decr2 avg_logFC [1]: 0.3018
- Dhdh avg_logFC [1]: 0.2626
- Etfdh avg_logFC [1]: 0.2639
- Etnppl avg_logFC [1]: 0.3154
- Fmo1 avg_logFC [1]: 0.265
- G0s2 avg_logFC [1]: 0.2656
- G6pc avg_logFC [1]: 0.2541
- Gabarapl1 avg_logFC [1]: 0.2932
- Gadd45b avg_logFC [1]: 0.2598
- Gas5 avg_logFC [1]: 0.2823
- Gm4952 avg_logFC [1]: 0.2581
- Gsta2 avg_logFC [1]: 0.311
- Gstt3 avg_logFC [1]: 0.3026
- Gyk avg_logFC [1]: 0.3134
- Hmgcl avg_logFC [1]: 0.2744
- Hmgcs1 avg_logFC [1]: 0.3251
- Hpgd avg_logFC [1]: 0.3412
- Hsd17b7 avg_logFC [1]: 0.3028
- Hsd17b10 avg_logFC [1]: 0.2802
- Kif1b avg_logFC [1]: 0.2961
- Leaf avg_logFC [1]: 0.2616
- Mia3 avg_logFC [1]: 0.2605
- Ndufa3 avg_logFC [1]: 0.2743
- Ndufa7 avg_logFC [1]: 0.26
- Nr1i3 avg_logFC [1]: 0.3481
- Oat avg_logFC [1]: 0.4904
- Pon1 avg_logFC [1]: 0.2899
- Ppp1r3b avg_logFC [1]: 0.251
- Ppp2r5a avg_logFC [1]: 0.3505
- Ptms avg_logFC [1]: 0.2863
- Pxmp4 avg_logFC [1]: 0.2555
- Rdh16 avg_logFC [1]: 0.3477
- Sc4mol avg_logFC [1]: 0.3361
- Slc4a4 avg_logFC [1]: 0.2977
- Slc25a20 avg_logFC [1]: 0.2507
- Slco1a4 avg_logFC [1]: 0.3049
- Snord118 avg_logFC [1]: 0.3782
- Tgoln1 avg_logFC [1]: 0.2809
- Tmed5 avg_logFC [1]: 0.2523
- Tobi avg_logFC [1]: 0.2958
- Tsc22d3 avg_logFC [1]: 0.3362
- Zfp36l1 avg_logFC [1]: 0.2964
- Zfp91 avg_logFC [1]: 0.2775
- avg_logFC, gene Abcc3 [2]: 0.2743
- avg_logFC, gene Acaa1b [2]: 0.282
- avg_logFC, gene Acat1 [2]: 0.2558
- avg_logFC, gene Acot1 [2]: 0.3106
- avg_logFC, gene Agpat6 [2]: 0.3143
- avg_logFC, gene Agt [2]: 0.255
- avg_logFC, gene Akr1d1 [2]: 0.2994
- avg_logFC, gene Aldh9a1 [2]: 0.2585
- avg_logFC, gene Aplp2 [2]: 0.2903
- avg_logFC, gene Apo17a [2]: 0.2518
- avg_logFC, gene Apoc2 [2]: 0.2781
- avg_logFC, gene Aqp9 [2]: 0.3178
- avg_logFC, gene Arl4a [2]: 0.2706
- avg_logFC, gene Asl [2]: 0.275
- avg_logFC, gene Baat [2]: 0.2728
- avg_logFC, gene Bnip3 [2]: 0.3208
- avg_logFC, gene Cd36 [2]: 0.3129
- avg_logFC, gene Ces1e [2]: 0.2566
- avg_logFC, gene Cox5a [2]: 0.2728
- avg_logFC, gene Cox6a1 [2]: 0.2745
- avg_logFC, gene Cox8a [2]: 0.2519
- avg_logFC, gene Cpeb4 [2]: 0.3011
- avg_logFC, gene Cpox [2]: 0.3229
- avg_logFC, gene Cpt1a [2]: 0.2626
- avg_logFC, gene Creg1 [2]: 0.2517
- avg_logFC, gene Csad [2]: 0.4207
- avg_logFC, gene Ctage5 [2]: 0.2535
- avg_logFC, gene Cth [2]: 0.2966
- avg_logFC, gene Cxcl12 [2]: 0.2821
- avg_logFC, gene D4Wsu53e [2]: 0.2928

From US20230053540A1, “TREATMENT OF LIVER INJURY” (Massachusetts Institute of Technology, priority 2019, published 2023)
